{"source": "patent US20100331269A1", "about": "“TRITERPENES DERIVATIVES AND USES THEREOF AS ANTITUMOR AGENTS OR ANTI-INFLAMMATORY AGENTS” (priority 2006, published 2010)", "key": {"B16-F1 cells": {"system": "B16-F1 cells", "assay": "Cytotoxicity, Hoechst DNA assay, B16-F1", "type": "cell-based, mouse", "settings": "± SD", "in_short": "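Cells grown at 37 °C, 5% CO2, in MEM with 10% FBS. Compound cytotoxicity was measured by Hoechst DNA staining. Activity is expressed as IC50, the concentration inhibiting 50% of cell growth.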"}, "[1]": {"system": "Hep G2 human hepatocellular carcinoma cells", "assay": "Cytotoxicity, resazurin metabolism assay, Hep G2", "type": "cell-based", "settings": "mean ± SD", "text": "(§1) Human lung carcinoma (A-549), human colon adenocarcinoma (DLD-1), human normal fibroblasts (WS1), mice melanoma (B16-F1), Human glioma (U-251), Human hepatocellular carcinoma (HEP G2), Human prostate adenocarcinoma (PC-3), Human ovary teratocarcinoma metastatic (PA-1), Human breast adenocarcinona metastatic (MDA-MB-231), Human breast adenocarcinoma (MCF-7) and Human malignant melanoma (SK-MEL-2) cell lines were obtained from the American Type Culture Collection (ATCC). All cell lines were cultured in minimum essential medium containing Earle's salts and L-glutamine (Mediatech Cellgro, Va.), to which was added 10% fetal bovine serum (Hyclone), vitamins (1×), penicillin (100 I.U./mL) and streptomycin (100 μg/mL), essential amino acids (1×) and sodium pyruvate (1×) (Mediatech Cellgro, Va.). Cells were kept at 37° C. in a humidified environment containing 5% CO2.\n(§2) Exponentially growing cells were plated in 96-well microplates (Costar, Corning Inc.) at a density of 5×10^3 cells per well in 100 μL of culture medium and were allowed to adhere for 16 hours before treatment. Increasing concentrations of each compound in DMSO (Sigma-Aldrich) were then added (100 μL per well) and the cells were incubated for 48 h. […] Cytotoxicity was assessed using resazurin (O'Brien, J. et al., Eur. J. Biochem. 2000, 267, 5421-5426) on an automated 96-well Fluoroskan Ascent F1™ plate reader (Labsystems) using excitation and emission wavelengths of 530 nm and 590 nm, respectively. Fluorescence was proportional to the cellular metabolic activity in each well. Survival percentage was defined as the fluorescence in experimental wells compared to that in control wells after subtraction of blank values. Each experiment was carried out three times in triplicata. IC50 results were expressed as mean±standard deviation.\n(§3) Compounds presented in Table 5 below were also tested in the following tumour cell lines: U-251 (Human glioma), HEP G2 (Human hepatocellular carcinoma), PC-3 (Human prostate adenocarcinoma), PA-1 (Human ovary teratocarcinoma metastatic), MDA-MB-231 (Human breast adenocarcinona metastatic), MCF-7 (Human breast adenocarcinoma) and SK-MEL-2 (Human malignant melanoma)."}, "[2]": {"system": "PA-1 human ovary teratocarcinoma cells", "assay": "Cytotoxicity, resazurin metabolism assay, PA-1", "type": "cell-based", "settings": "mean ± SD", "text": "as §1, §2, §3"}, "Lewis lung carcinoma": {"system": "Lewis lung carcinoma", "assay": "In vivo antitumoral activity against Lewis lung cancer-bearing mice", "design": "species or system C57BL/6 mouse", "settings": "day 13", "description": "Cell lines and mice preparation: The Lewis lung carcinoma cell lines (#CRL-1642, lot # 4372266, ATCC) and the C57BL/6 mouse strain (Charles River Inc., St-Constant, Qc) were used. Cells were grown to 90% confluence in complete DMEM medium containing Earle's salts and L-glutamine (Mediatech Cellgro, Va.), 10% foetal bovine serum (Hyclone), vitamins (1×), penicillin (100 I.U./mL) and streptomycin (100 μg/mL), essential amino acids (1×) and sodium pyruvate (1×) (Mediatech Cellgro, Va.). Cells were then harvested with up and down only. Cells were counted using a hemacytometer and resuspended in DMEM medium without SVF. 100 μL of a solution containing 1×10^7 cells/mL was inoculated subcutaneously in the right flank of each 6 weeks old mouse on day zero.\nThe experimental mice were weighed daily.\nData analysis: In vivo antitumor activity was evaluated according to the parameters as follows (Miot-Noirault, E. et al. Invest. New Drugs 2004, 22, 369-378):\n(a) Calculated tumour weight (CTW): The CTW of each tumour was estimated from two-dimensional measurements performed once a day with a slide calliper, according to the formula: CTW (mg)=(L×W^2)/2 with L=length in mm and W=width in mm. Differences in CTW between treated and control groups (DMSO) were analyzed for significance using the U Wilcoxon-Mann-Whitney test and Student t-test. Values of p<0.05 were considered statistically significant.\n(b) Treated/Control value (T/C) and Tumour Growth Inhibition (TGI):The T/C was calculated as the ratio of the mean CTW of TW of drug-treated mice versus controls: T/C=(CTW of the drug-treated group on Day X/CTW of the control group on Day X)×100. TGI is 100−(T/C) value."}}, "note": "Marks after values point to notes of the source that are not given here."}
{"compound": "C=C(C)[C@@H]1CC[C@]2(C(=O)O)CC[C@]3(C)[C@H](CC[C@@H]4[C@@]5(C)CC[C@H](O[C@@H]6O[C@@H](C)[C@H](O)[C@@H](O)[C@H]6O)C(C)(C)[C@@H]5CC[C@]43C)[C@@H]12", "note": "[Compound 22, 3-O-α-L-Rhamnopyranoside of betulinic acid]", "values": [{"measurement": "IC50", "setting": "B16-F1 cells", "value": "4.2 ± 0.5", "unit": "µM"}, {"measurement": "IC50", "setting": "[1]", "value": "20 ± 2", "unit": "µM"}, {"measurement": "IC50", "setting": "[2]", "value": "8 ± 1", "unit": "µM"}, {"measurement": "CTW (calculated tumour weight)", "setting": "Lewis lung carcinoma; 50 mg/kg IP every 3-4 days", "value": "297 ± 98", "unit": "mg"}, {"measurement": "T/C (Treated/Control)", "setting": "Lewis lung carcinoma; 50 mg/kg IP", "value": 91, "unit": "%"}, {"measurement": "TGI (Tumour Growth Inhibition)", "setting": "Lewis lung carcinoma; 50 mg/kg IP", "value": 9, "unit": "%"}, {"measurement": "CTW (calculated tumour weight)", "setting": "Lewis lung carcinoma; 100 mg/kg IP every 3-4 days", "value": "178 ± 53^e mg"}, {"measurement": "T/C (Treated/Control)", "setting": "Lewis lung carcinoma; 100 mg/kg IP", "value": 55, "unit": "%"}, {"measurement": "TGI (Tumour Growth Inhibition)", "setting": "Lewis lung carcinoma; 100 mg/kg IP", "value": 45, "unit": "%"}, {"measurement": "CTW (calculated tumour weight)", "setting": "Lewis lung carcinoma; 200 mg/kg IP every 3-4 days", "value": "192 ± 50^e mg"}, {"measurement": "T/C (Treated/Control)", "setting": "Lewis lung carcinoma; 200 mg/kg IP", "value": 59, "unit": "%"}, {"measurement": "TGI (Tumour Growth Inhibition)", "setting": "Lewis lung carcinoma; 200 mg/kg IP", "value": 41, "unit": "%"}]}
